Test results taken from patent publication US20060234919A1, “Use” (priority 2001, published 2006).
Read-outs that look alike come from different tables or passages of the source.

Legend:
[1] = tested on: hydrochloric acid-induced cystitis; assay: urinary frequency in rats with hydrochloric acid-induced cystitis; type: in vivo, rat
From the text: Twenty Sprague-Dawley rats (body weight 220-250 g) were randomly divided into four equal groups: group 1, normal controls; group 2, a sham treatment (HCl-induced IC, with subsequent saline instillation); group 3, a sham treatment (HCl-induced IC, with subsequent acetic acid instillation); and group 4, stimulated (HCl-induced IC with oxytocin and acetic acid instillation). The IC animal model developed by Rivas et al. was used (Rivas D A, Chancellor M B, Shupp-Byme D, Shenot P J, McHugh K, McCue P. A molecular marker for the development of interstitial cystitis in a rat model: isoactin gene expression. J. Urol. 1997; 157: 1937-1940); IC was induced in groups 2-4 under general anaesthesia (using a combined subcutaneous injection with acepromazine 0.05 mg/kg, ketamine 50 mg/kg and xylazine 5 mg/kg). A sterile polyethylene catheter (outside diameter 1.27 mm; Becton Dickinson Company, Sparks, Md., USA) was inserted into the bladder through the urethra and all urine aspirated. […]
The micturition pattern was measured both before and 3 weeks after intravesical HCl instillation, using a Grass 79 Polygraph (Grass Instruments Co., Quincy, Mass., USA). Rats were placed into a metabolic cage and micturition recorded automatically for […] (17.00-09.00 hours); all rats were assessed at the same time of the day to minimise the effect of the circadian cycle on micturition frequency and volume. […]

N-acetyl-LTE4 = assay: OVA-induced N-acetyl-LTE4 synthesis in BN rats (experimental asthma model); type: in vivo, rat; conditions: for biliary excretion of N-acetyl-LTE4: 1.0 mg/kg by aerosol
Procedure: Inbred male BN rats, 7-9 weeks old, were obtained from Harlan Sprague-Dawley. Active sensitisation was performed by subcutaneous injection of 1 ml of saline containing 1 mg of ovalbumin and 3.48 mg of aluminum hydroxide. At the same time, 0.3 ml of Bordetella pertussis vaccine containing heat-killed organisms was given intraperitoneally as an adjuvant. Animals were studied 14-21 days after sensitisation.
Two groups of rats (n=3 for each group) were lightly anaesthetised with xylazine (7 mg/kg) and pentobarbital (30 mg/kg ip) before endotracheal intubation. Each rat then received either saline or 1.0 mg/kg oxytocin (1.0 mg/ml) by aerosol over a period of 5 min using a disposable nebulizer at a flow rate of […] and an output of 0.15 ml/min. Seventeen hours later, the animals were again anaesthetised, and these treatments were repeated. After a further hour, each of the rats was challenged with aerosolised 5% OVA in saline for 5 min.
Before the second treatment with oxytocin or saline, the rats were anaesthetised with urethane (1 g/kg ip, 50% wt/vol). After blind orotracheal intubation (6 cm of PE-240 polyethylene catheter), the common bile duct was exposed and cannulated (15 cm of PE-20 polyethylene tubing) after ligation of duodenal end. The rats were allowed to stabilise for a period of 2 h before challenge with OVA. Bile was collected for 1 h before and for 2 consecutive periods of 1 h after OVA challenge ([…]). All bile samples were collected on ice in 1.5-ml Eppendorf tubes. The bile was kept frozen at […] before analysis.
Bile samples were thawed, and methanol was added to 0.3-ml aliquots to give a final concentration of 80%. […] Ultraviolet absorbance was monitored by a variable wavelength ultraviolet detector. […]
Column fractions were evaporated to dryness in a centrifuge under vacuum, and the residues were dissolved in phosphate-buffered saline (0.1 ml at pH 8.2). N-acetyl-LTE4 was measured in each fraction by using a monoclonal antibody directed against LTC4, which cross-reacted with N-acetyl-LTE4. […]

[2] = tested on: ischaemic musculocutaneous skin flaps; conditions: previously shown by the inventors, cited from earlier work

With Oxytocin the micturition frequency ([1]; group 4 (HCl-induced IC with oxytocin 1 mg/ml instillation) vs group 2+3, after 3 weeks, P=0.05) was “significantly less”, the “urine volume per micturition” value ([1]; group 4 (oxytocin instillation) vs group 2+3) was “not significantly higher” and the “biliary excretion of N-acetyl-LTE4” value (N-acetyl-LTE4; early response 0-1 h after OVA challenge, control 6.9±1.8) was 4.3 ± 2.1 pmol/h. The “biliary excretion of N-acetyl-LTE4” value (N-acetyl-LTE4; late response 5-6 h after OVA challenge, control 5.2±0.9) was 2.6 ± 0.8 pmol/h, the “levels of N-acetyl-LTE4 in oxytocin-treated vs control groups” value (N-acetyl-LTE4; before OVA challenge) was “almost identical” and the “survival of ischaemic musculocutaneous skin flaps” value ([2]; 1 μg/kg i.c.v.) was “increases the survival”. For the same substance, the “survival of ischaemic musculocutaneous skin flaps” value ([2]; 1 mg/kg s.c.) was “induced the same effect”.
